Patent US11413243B2, “Fusogenic compounds for delivery of biologically active molecules” (Nitto Denko Corporation, priority 2017, dated 2022)
Where two headings read alike, the source gives them in different places.

System: HSP47
Conditions: for % of Expression at Dose (nM) 18 nM / % of HSP47 expression in Stellate Cell, Conc siRNA 18 nM: siRNA 18 nM; for % of Expression at Dose (nM) 18 nM / % of Expression at Dose (nM) 75 nM / % of Expression at Dose (nM) 300 nM: rat stellate cells; for % of Expression at Dose (nM) 75 nM / % of HSP47 expression in Stellate Cell, Conc siRNA 75 nM: siRNA 75 nM; for % of Expression at Dose (nM) 300 nM / % of HSP47 expression in Stellate Cell, Conc siRNA 300 nM: siRNA 300 nM; for % of HSP47 expression in Stellate Cell, Conc siRNA 18 nM / % of HSP47 expression in Stellate Cell, Conc siRNA 75 nM / % of HSP47 expression in Stellate Cell, Conc siRNA 300 nM: Table 5, stellate cells
Description: The in vitro activity for gene expression knockdown using an siRNA was measured using rat stellate cells in DMEM medium according to the following protocol: One day before the transfection, plate the cells in a 96-well plate at 3×10^3 cells per well for Stellate cells with 100 μl of medium containing 10% FBS and culture in a 37° C. incubator containing a humidified atmosphere of 5% CO2 in air. Before transfection, change medium to 90 μl of medium without antibiotics. Prepare the appropriate dilutions of the solution collected from the tubing in PBS buffer so that the addition of 10 μl into each well is sufficient to reach the desired concentration. 48 hours after transfection, wash the cells once with ice-cold PBS. Lyse the cells with 50 μl of Cell-to-Ct Lysis Buffer for 5-30 minutes at ambient temperature. Add 5 μl of Stop Solution and incubate for 2 minutes at ambient temperature. Measure mRNA level by qPCR with TAQMAN immediately. Alternatively, the samples can be frozen at −80° C. and assayed at later times. For qRT-PCR assay: Thaw all reagents on ice. Mix the pooled reagents in 0.2 ml PCR tubes. Dispense the set-up mixture into 384 well plate, 10 μl/well×3. Seal the plate with film, spin down mixture into the bottom of wells. Perform qRT-PCR assay.
In this example, an HSP47 siRNA was used to knockdown HSP47 gene. For TaqMan gene expression assays, HSP47 gene specific TaqMan probe was used.

## CCCCCCCCCCCCCC(=O)OCCN(CCOC(=O)CCCCCCCCCCCCC)C(=O)CCC(=O)NCCCC[C@H](NC(=O)CCC(=O)N(CCOC(=O)CCCCCCCCCCCCC)CCOC(=O)CCCCCCCCCCCCC)C(=O)NCCCOCCOCCOCCCNC(=O)CCOCCOCCOCCOCCOCCC(=O)NCCCOCCOCCOCCCNC(=O)[C@H](CCCCNC(=O)CCC(=O)N(CCOC(=O)CCCCCCCCCCCCC)CCOC(=O)CCCCCCCCCCCCC)NC(=O)CCC(=O)N(CCOC(=O)CCCCCCCCCCCCC)CCOC(=O)CCCCCCCCCCCCC [Compound T1]
Table 3
  % of Expression at Dose (nM) 18 nM: 76%
  % of Expression at Dose (nM) 75 nM: 68%
  % of Expression at Dose (nM) 300 nM: 44%

## CCCCC/C=C\C/C=C\CCCCCCCCOC(=O)[C@H]1C[C@H](NCC(=O)CCC(=O)NCCCCC(NC(=O)CCC(=O)N[C@H]2C[C@H](C(=O)OCCCCCCCC/C=C\C/C=C\CCCCC)N(C(=O)CCCCCCC/C=C\C/C=C\CCCCC)C2)C(=O)NCCCOCCOCCOCCOCCOCCCNC(=O)C(CCCCNC(=O)CCC(=O)N[C@@H]2C[C@@H](C(=O)OCCCCCCCC/C=C\C/C=C\CCCCC)N(C(=O)CCCCCCC/C=C\C/C=C\CCCCC)C2)NC(=O)CCC(=O)N[C@@H]2C[C@@H](C(=O)OCCCCCCCC/C=C\C/C=C\CCCCC)N(C(=O)CCCCCCC/C=C\C/C=C\CCCCC)C2)CN1C(=O)CCCCCCC/C=C\C/C=C\CCCCC (stereo partly drawn) [Compound T10]
  % of HSP47 expression in Stellate Cell, Conc siRNA 18 nM: 11.1%
  % of HSP47 expression in Stellate Cell, Conc siRNA 75 nM: 4.2%
  % of HSP47 expression in Stellate Cell, Conc siRNA 300 nM: 1.9%

## CCCCC/C=C\C/C=C\CCCCCCCC(=O)OCCN(CCOC(=O)CCCCCCC/C=C\C/C=C\CCCCC)C(=O)CCCC(=O)NCCCC[C@H](NC(=O)CCCC(=O)N(CCOC(=O)CCCCCCC/C=C\C/C=C\CCCCC)CCOC(=O)CCCCCCC/C=C\C/C=C\CCCCC)C(=O)NCCCOCCOCCOCCOCCOCCCNC(=O)[C@H](CCCCNC(=O)CCCC(=O)N(CCOC(=O)CCCCCCC/C=C\C/C=C\CCCCC)CCOC(=O)CCCCCCC/C=C\C/C=C\CCCCC)NC(=O)CCCC(=O)N(CCOC(=O)CCCCCCC/C=C\C/C=C\CCCCC)CCOC(=O)CCCCCCC/C=C\C/C=C\CCCCC [Compound T5]
Table 4
  % of Expression at Dose (nM) 18 nM: 29%
  % of Expression at Dose (nM) 75 nM: 13%
  % of Expression at Dose (nM) 300 nM: 11%

## CCCCC/C=C\C/C=C\CCCCCCCC(=O)OCCN(CCOC(=O)CCCCCCC/C=C\C/C=C\CCCCC)C(=O)CCC(=O)NCCCC[C@H](NC(C)=O)C(=O)NCCCOCCOCCOCCOCCOCCCNC(=O)[C@H](CCCCNC(=O)CCC(=O)N(CCOC(=O)CCCCCCC/C=C\C/C=C\CCCCC)CCOC(=O)CCCCCCC/C=C\C/C=C\CCCCC)NC(C)=O [Compound T13]
  % of HSP47 expression in Stellate Cell, Conc siRNA 18 nM: 21.8%
  % of HSP47 expression in Stellate Cell, Conc siRNA 75 nM: 6.4%
  % of HSP47 expression in Stellate Cell, Conc siRNA 300 nM: 3.1%

## CCCCC/C=C\C/C=C\CCCCCCCC(=O)OCCN(CCOC(=O)CCCCCCC/C=C\C/C=C\CCCCC)C(=O)CCC(=O)NCCCCC(NC(=O)CCC(=O)N(CCOC(=O)CCCCCCC/C=C\C/C=C\CCCCC)CCOC(=O)CCCCCCC/C=C\C/C=C\CCCCC)C(=O)NCCCOCCOCCOCCCNC(=O)C(CCCCNC(=O)CCC(=O)N(CCOC(=O)CCCCCCC/C=C\C/C=C\CCCCC)CCOC(=O)CCCCCCC/C=C\C/C=C\CCCCC)NC(=O)CCC(=O)N(CCOC(=O)CCCCCCC/C=C\C/C=C\CCCCC)CCOC(=O)CCCCCCC/C=C\C/C=C\CCCCC (stereo not drawn) [Compound T4]
Table 3
  % of Expression at Dose (nM) 18 nM: 82%
  % of Expression at Dose (nM) 75 nM: 70%
  % of Expression at Dose (nM) 300 nM: 44%
Table 4
  % of Expression at Dose (nM) 18 nM: 27%
  % of Expression at Dose (nM) 75 nM: 10%
  % of Expression at Dose (nM) 300 nM: 8%

## CCCCCCCC/C=C\CCCCCCCC(=O)OCCN(CCOC(=O)CCCCCCC/C=C\CCCCCCCC)C(=O)CCC(=O)NCCCC[C@H](NC(=O)CCC(=O)N(CCOC(=O)CCCCCCC/C=C\CCCCCCCC)CCOC(=O)CCCCCCC/C=C\CCCCCCCC)C(=O)NCCCOCCOCCOCCOCCOCCCNC(=O)[C@H](CCCCNC(=O)CCC(=O)N(CCOC(=O)CCCCCCC/C=C\CCCCCCCC)CCOC(=O)CCCCCCC/C=C\CCCCCCCC)NC(=O)CCC(=O)N(CCOC(=O)CCCCCCC/C=C\CCCCCCCC)CCOC(=O)CCCCCCC/C=C\CCCCCCCC [Compound S7]
Table 3
  % of Expression at Dose (nM) 18 nM: 57%
  % of Expression at Dose (nM) 75 nM: 48%
  % of Expression at Dose (nM) 300 nM: 27%

## CCCCC/C=C\C/C=C\CCCCCCCC(=O)OCCN(CCOC(=O)CCCCCCC/C=C\C/C=C\CCCCC)C(=O)CCC(=O)NCCC[C@H](NC(=O)CCC(=O)N(CCOC(=O)CCCCCCC/C=C\C/C=C\CCCCC)CCOC(=O)CCCCCCC/C=C\C/C=C\CCCCC)C(=O)NCCCOCCOCCOCCOCCOCCCNC(=O)[C@H](CCCNC(=O)CCC(=O)N(CCOC(=O)CCCCCCC/C=C\C/C=C\CCCCC)CCOC(=O)CCCCCCC/C=C\C/C=C\CCCCC)NC(=O)CCC(=O)N(CCOC(=O)CCCCCCC/C=C\C/C=C\CCCCC)CCOC(=O)CCCCCCC/C=C\C/C=C\CCCCC [Compound T6]
Table 4
  % of Expression at Dose (nM) 18 nM: 30%
  % of Expression at Dose (nM) 75 nM: 12%
  % of Expression at Dose (nM) 300 nM: 5%

## CCCCC/C=C\C/C=C\CCCCCCCC(=O)OCC(OC(=O)CCCCCCC/C=C\C/C=C\CCCCC)C1CCN(C(=O)CCC(=O)NCCCCC(NC(=O)CCC(=O)N2CCC(C(COC(=O)CCCCCCC/C=C\C/C=C\CCCCC)OC(=O)CCCCCCC/C=C\C/C=C\CCCCC)CC2)C(=O)NCCCOCCOCCOCCOCCOCCCNC(=O)C(CCCCNC(=O)CCC(=O)N2CCC(C(COC(=O)CCCCCCC/C=C\C/C=C\CCCCC)OC(=O)CCCCCCC/C=C\C/C=C\CCCCC)CC2)NC(=O)CCC(=O)N2CCC(C(COC(=O)CCCCCCC/C=C\C/C=C\CCCCC)OC(=O)CCCCCCC/C=C\C/C=C\CCCCC)CC2)CC1 (stereo not drawn) [Compound T11]
  % of HSP47 expression in Stellate Cell, Conc siRNA 18 nM: 11.1%
  % of HSP47 expression in Stellate Cell, Conc siRNA 75 nM: 4.5%
  % of HSP47 expression in Stellate Cell, Conc siRNA 300 nM: 1.8%

## CCCCC/C=C\C/C=C\CCCCCCCC(=O)OCCN(CCOC(=O)CCCCCCC/C=C\C/C=C\CCCCC)C(=O)CCC(=O)NC(CCCCNC(C)=O)C(=O)NCCCOCCOCCOCCOCCOCCCNC(=O)[C@H](CCCCNC(C)=O)NC(=O)CCC(=O)N(CCOC(=O)CCCCCCC/C=C\C/C=C\CCCCC)CCOC(=O)CCCCCCC/C=C\C/C=C\CCCCC (stereo partly drawn) [Compound T14]
  % of HSP47 expression in Stellate Cell, Conc siRNA 18 nM: 103.3%
  % of HSP47 expression in Stellate Cell, Conc siRNA 75 nM: 59.1%
  % of HSP47 expression in Stellate Cell, Conc siRNA 300 nM: 5.2%

## CCCCCCCC/C=C\CCCCCCCC(=O)OCCN(CCOC(=O)CCCCCCC/C=C\CCCCCCCC)C(=O)CCC(=O)NCCCC[C@H](NC(=O)CCC(=O)N(CCOC(=O)CCCCCCC/C=C\CCCCCCCC)CCOC(=O)CCCCCCC/C=C\CCCCCCCC)C(=O)NCCCOCCOCCOCCCNC(=O)CCOCCOCCOCCOCCOCCC(=O)NCCCOCCOCCOCCCNC(=O)[C@H](CCCCNC(=O)CCC(=O)N(CCOC(=O)CCCCCCC/C=C\CCCCCCCC)CCOC(=O)CCCCCCC/C=C\CCCCCCCC)NC(=O)CCC(=O)N(CCOC(=O)CCCCCCC/C=C\CCCCCCCC)CCOC(=O)CCCCCCC/C=C\CCCCCCCC [Compound S8]
Table 3
  % of Expression at Dose (nM) 18 nM: 74%
  % of Expression at Dose (nM) 75 nM: 64%
  % of Expression at Dose (nM) 300 nM: 42%

## CCCCC/C=C\C/C=C\CCCCCCCC(=O)OCCN(CCOC(=O)CCCCCCC/C=C\C/C=C\CCCCC)C(=O)CCC(=O)NC[C@H](NC(=O)CCC(=O)N(CCOC(=O)CCCCCCC/C=C\C/C=C\CCCCC)CCOC(=O)CCCCCCC/C=C\C/C=C\CCCCC)C(=O)NCCCOCCOCCOCCOCCOCCCNC(=O)[C@H](CNC(=O)CCC(=O)N(CCOC(=O)CCCCCCC/C=C\C/C=C\CCCCC)CCOC(=O)CCCCCCC/C=C\C/C=C\CCCCC)NC(=O)CCC(=O)N(CCOC(=O)CCCCCCC/C=C\C/C=C\CCCCC)CCOC(=O)CCCCCCC/C=C\C/C=C\CCCCC [Compound T7]
Table 4
  % of Expression at Dose (nM) 18 nM: 51%
  % of Expression at Dose (nM) 75 nM: 20%
  % of Expression at Dose (nM) 300 nM: 8%

## CC/C=C\C/C=C\C/C=C\CCCCCCCC(=O)OCCN(CCOC(=O)CCCCCCC/C=C\C/C=C\C/C=C\CC)C(=O)CCC(=O)NCCCC[C@H](NC(=O)CCC(=O)N(CCOC(=O)CCCCCCC/C=C\C/C=C\C/C=C\CC)CCOC(=O)CCCCCCC/C=C\C/C=C\C/C=C\CC)C(=O)NCCCOCCOCCOCCOCCOCCCNC(=O)[C@H](CCCCNC(=O)CCC(=O)N(CCOC(=O)CCCCCCC/C=C\C/C=C\C/C=C\CC)CCOC(=O)CCCCCCC/C=C\C/C=C\C/C=C\CC)NC(=O)CCC(=O)N(CCOC(=O)CCCCCCC/C=C\C/C=C\C/C=C\CC)CCOC(=O)CCCCCCC/C=C\C/C=C\C/C=C\CC [Compound T8]
Table 4
  % of Expression at Dose (nM) 18 nM: 29%
  % of Expression at Dose (nM) 75 nM: 9%
  % of Expression at Dose (nM) 300 nM: 8%

## CCCCCCCCCCCCCCCC(=O)OCCN(CCOC(=O)CCCCCCCCCCCCCCC)C(=O)CCCC(=O)NCCCC[C@H](NC(=O)CCCC(=O)N(CCOC(=O)CCCCCCCCCCCCCCC)CCOC(=O)CCCCCCCCCCCCCCC)C(=O)NCCCOCCOCCOCCCNC(=O)CCOCCOCCOCCOCCOCCC(=O)NCCCOCCOCCOCCCNC(=O)[C@H](CCCCNC(=O)CCCC(=O)N(CCOC(=O)CCCCCCCCCCCCCCC)CCOC(=O)CCCCCCCCCCCCCCC)NC(=O)CCCC(=O)N(CCOC(=O)CCCCCCCCCCCCCCC)CCOC(=O)CCCCCCCCCCCCCCC [Compound S6]
Table 3
  % of Expression at Dose (nM) 18 nM: 97%
  % of Expression at Dose (nM) 75 nM: 80%
  % of Expression at Dose (nM) 300 nM: 33%
